Test: Premix stability: percent retention of 25-hydroxy Vitamin D3 in stored feed premixes (Example 7)
Type: physicochemical
Conditions: Basic and Vitamin Premixes, stored at 25° C. and 35° C. up to 3 months (FIGS. 6 and 7)
Experimental: Three premixes for use in animal feed were prepared having the following components in the following proportions by percent weight based on the total weight of the premix.
Each of these premix compositions was prepared using a microencapsulated oil of the present invention or a prior art beadlet containing 25-hydroxy Vitamin D3. In addition, a control formulation was prepared, in which Vitamin D3 was substituted for the 25-hydroxy Vitamin D3. Each of the premixes was stored at 25° C. and 35° C., for a length of time up to 3 months. The percent retention of the 25-hydroxy Vitamin D3 was determined at each time and temperature.

stability of 25-hydroxy Vitamin D3 (% retention) in premix: less than that of Vitamin D3
Structure (SMILES): C=C1CCC(O)C/C1=C/C=C1\CCCC2(C)C1CCC2C(C)CCCC(C)(C)O (stereo not shown) [25-hydroxy Vitamin D3]

From US8088410B2, “25-hydroxy Vitamin D3 compositions” (DSM IP Assets B.V., priority 2002, dated 2012)
